pEC50: −log10 of the molar value. Where two headings read alike, the source gives them in different places.
Experiments:
[1] = system: rats; assay: Acute toxicity, peroral, rats; type: in vivo; conditions: 100 mg/kg p.o., observed 24 hours
Method: (§1) The acute toxicity was determined in rats of both sexes (1:1) with a body weight of 120-150 gm. The test compound was perorally administered as a suspension in 1% methyl-cellulose (1 ml/100gm animal) by means of an esophageal sound.

[2] = Acute toxicity, peroral, rats; type: in vivo; conditions: rat, in vivo, po, suspension in 1% methyl-cellulose, observed 24 hours
Method: as §1

[3] = target: T1, prostaglandin synthetases (Bos taurus, UniProt O62664); assay: Anti-inflammatory activity: inhibition of prostaglandin biosynthesis (prostaglandin synthetases, microsomal extract from bovine seminal vesicles); type: biochemical; conditions: 14C-arachidonic acid substrate, read-out: EC50 in mol (50% decrease in the amount of prostaglandins)
T1 construct: isolated as a microsomal extract from bovine seminal vesicles; from tissue; host or cells: bovine seminal vesicles (microsomal extract)
T1 sequence (O62664 25-600): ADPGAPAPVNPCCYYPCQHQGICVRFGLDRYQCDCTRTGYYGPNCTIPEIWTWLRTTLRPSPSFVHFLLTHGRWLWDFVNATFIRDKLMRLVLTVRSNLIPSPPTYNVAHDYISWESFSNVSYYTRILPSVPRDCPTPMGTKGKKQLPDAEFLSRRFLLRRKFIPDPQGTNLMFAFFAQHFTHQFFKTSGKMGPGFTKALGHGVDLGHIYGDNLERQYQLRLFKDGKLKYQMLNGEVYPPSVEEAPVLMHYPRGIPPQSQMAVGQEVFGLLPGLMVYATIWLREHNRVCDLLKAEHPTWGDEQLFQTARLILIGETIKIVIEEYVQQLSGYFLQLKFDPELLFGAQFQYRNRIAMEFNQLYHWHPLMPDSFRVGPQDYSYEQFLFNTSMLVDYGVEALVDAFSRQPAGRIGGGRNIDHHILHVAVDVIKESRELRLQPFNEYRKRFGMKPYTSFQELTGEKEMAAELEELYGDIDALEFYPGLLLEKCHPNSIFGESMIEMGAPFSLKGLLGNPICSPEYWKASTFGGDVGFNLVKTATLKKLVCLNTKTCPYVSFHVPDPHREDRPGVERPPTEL
Method: Therefore, the anti-inflammatory activity was determined as the activity against the prostaglandin synthetases:
^14 C-arachidonic acid served as the substrate. The prostaglandins biosynthetisized therefrom were separated chromatographically from the ^14 C-arachidonic acid, and the remaining substrate and product were measured radiochemically.

[4] = system: thrombocyte aggregation in platelet-rich plasma of healthy test persons (collagen); assay: Inhibition of blood-platelet aggregation (Born test), collagen-induced, platelet-rich plasma; type: cell-based, healthy test persons (human); conditions: Homo sapiens, read-out: Percentage change in light permeability of plasma (Born test); for inhibition at 1 µM: 10^-6 mol/liter; for inhibition at 20 µM: 2.10^-5 mol/liter; for inhibition at 2 µM: 2.10^-6 mol/liter; for inhibition at 0.2 µM: 2.10^-7 mol/liter
Method: The decrease in the optical density of platelet suspensions was measured photometrically and recorded after the addition of collagen. From the angle of inclination of the density curve the velocity of aggregation was estimated. The optical density was taken as the point on the curve where the most light was transmitted. The doses of collagen were chosen so as to be sufficient to produce irreversible aggregation. […] Commercial collagen sold by Hormonchemie, Munich, Germany, was used.

[5] = 10^-5 mol/liter, collagen, =% decrease in aggregation vs control
[6] = collagen, =% decrease in aggregation vs control

| SMILES | animals died [1] | LD50 at 24 h [2] | pEC50 ([3]; DMSO 2%) | inhibition at 20 µM [4, 6] | inhibition at 2 µM [4, 6] | also measured |
| --- | --- | --- | --- | --- | --- | --- |
| CN1C(C(=O)Nc2nccs2)=C(O)c2sc3ccccc3c2S1(=O)=O [A, 4-Hydroxy-2-methyl-N-(2-thiazolyl)-2H-[1] benzothieno-[2,3-e]-1,2-thiazine-3-carboxamide-1,1-dioxide] | 0 out of 10 | > 100 mg/kg | 7.41 |  |  | inhibition at 10 µM [4, 5]: 94%; inhibition at 1 µM [4, 6]: 73%; inhibition at 0.1 µM ([4]; 10^-7 mol/liter, collagen, =% decrease in aggregation vs control): 14% |
| Cc1cccc(NC(=O)C2=C(O)c3sc4ccccc4c3S(=O)(=O)N2C)n1 [B, 4-Hydroxy-2-methyl-N-(6-methyl-2-pyridyl)-2H-[1] benzothieno [2,3-e]-1,2-thiazine-3-carboxamide-1,1-dioxide] |  |  |  |  |  | inhibition at 4 µM ([4]; 4.10^-6 mol/liter, collagen, =% decrease in aggregation vs control): 100%; inhibition at 0.4 µM ([4]; 4.10^-7 mol/liter, collagen, =% decrease in aggregation vs control): 71% |
| Cc1csc(NC(=O)C2=C(O)c3sc4ccccc4c3S(=O)(=O)N2C)n1 [C, 4-Hydroxy-2-methyl-N-(4-methyl-2-thiazolyl)-2H-[1] benzothieno [2,3-e]-1,2-thiazine-3-carboxamide-1,1-dioxide] | 0 out of 10 | > 100 mg/kg | 7.68 |  |  | inhibition at 10 µM [4, 5]: 93%; inhibition at 1 µM [4, 6]: 57% |
| Cc1ccnc(NC(=O)C2=C(O)c3sc4ccccc4c3S(=O)(=O)N2C)c1 [D, 4-Hydroxy-2-methyl-N-(4-methyl-2-pyridyl)-2H-[1]-benzothieno-[2,3-e]-1,2-thiazine-3-carboxamide-1,1-dioxide] |  |  |  | 88% | 60% | inhibition at 0.2 µM [4, 6]: 19% |
| Cc1ccnc(NC(=O)C2=C(O)c3sc4cc(C)ccc4c3S(=O)(=O)N2C)c1 [E, 2,7-Dimethyl-4-hydroxy-N-(4-methyl-2-pyridyl)-2H-[1]-benzothieno [2,3-e]-1,2-thiazine-3-carboxamide-1,1-dioxide] |  |  |  | 72% | 34% |  |
| Cc1ccc2c3c(sc2c1)C(O)=C(C(=O)Nc1cccc(C)n1)N(C)S3(=O)=O [F, 2,7-Dimethyl-4-hydroxy-N-(6-methyl-2-pyridyl)-2H-[1]-benzothieno [2,3-e]-1,2-thiazine-3-carboxamide-1,1-dioxide] |  |  |  | 90% | 77% | inhibition at 0.2 µM [4, 6]: 30% |
| Cc1ccnc(NC(=O)C2=C(O)c3sc4cc(Cl)ccc4c3S(=O)(=O)N2C)c1 [G, 7-Chloro-4-hydroxy-2-methyl-N-(4-methyl-2-pyridyl)-2H-[1]-benzothieno [2,3-e]-1,2-thiazine-3-carboxamide-1,1-dioxide] |  |  |  | 66% | 33% |  |
| Cc1cccc(NC(=O)C2=C(O)c3sc4cc(Cl)ccc4c3S(=O)(=O)N2C)n1 [H, 7-Chloro-4-hydroxy-2-methyl-N-(6-methyl-2-pyridyl)-2H-[1] benzothieno [2,3-e]-1,2-thiazine-3-carboxamide-1,1-dioxide] |  |  |  | 89% | 88% | inhibition at 0.2 µM [4, 6]: 33% |
| CN1C(C(=O)Nc2nc3ccccc3s2)=C(O)c2sc3ccccc3c2S1(=O)=O [I, N-(2-Benzothiazolyl)-4-hydroxy-2-methyl-2H-[1] benzothieno [2,3-e]-1,2-thiazine-3-carboxamide-1,1-dioxide] | 0 out of 10 | > 100 mg/kg | 7.66 |  |  |  |
| CN1C(C(=O)Nc2ncc(Cl)s2)=C(O)c2sc3ccccc3c2S1(=O)=O [J, N-(5-Chloro-2-thiazolyl)-4-hydroxy-2-methyl-2H-[1] benzothieno [2,3-e]-1,2-thiazine-3-carboxamide-1,1-dioxide] | 0 out of 10 | > 100 mg/kg | 7.33 |  |  |  |
| Cc1nc(NC(=O)C2=C(O)c3sc4ccccc4c3S(=O)(=O)N2C)sc1C [K, N-(4,5-Dimethyl-2-thiazolyl)-4-hydroxy-2-methyl-2H-[1]-benzothieno [2,3-e]-1,2-thiazine-3-carboxamide-1,1-dioxide] | 0 out of 10 | > 100 mg/kg |  |  |  | pEC50 ([3]; DMSO 10%): 6.60 |
| CC(=O)Oc1ccccc1C(=O)O [V, Acetylsalicyclic acid, reference compound] |  |  |  |  |  | inhibition at 10 µM [4]: 13%; inhibition at 30 µM [4]: 45% |
| CN1C(C(=O)Nc2nccs2)=C(O)c2ccccc2S1(=O)=O [W, Sudoxicam, reference compound] |  |  | 5.15 |  |  |  |
